“Also recorded” adds a separate entry of the source.
Assays:
Saos-2 = assay: cells; type: cell-based, human; settings: for IC50: Homo sapiens, SAOS-2, 120 h, read-out: IC50 growth inhibition
KHOS/NP = assay: cells; type: cell-based; settings: Homo sapiens, 120 h, read-out: IC50 growth inhibition
[1] = tested on: Saos-2 osteosarcoma xenograft; assay: Saos-2 xenograft tumor growth (caliper, CT); type: in vivo, NSG male mice; settings: 80 mg/kg oral gavage every other day for 20 days; end of treatment
Protocol: Animal experiments were executed in accordance with a protocol approved by the McGill Institutional Animal Care Committee (McGill University Health Centre Research Institute and McGill University, Montreal, Canada). Xenografts of the tumors were obtained via unilateral and subcutaneous injection (5 × 10^6 cells in 100 µL of a PBS1x solution) into immunodeficient NSG male mice (N = 28; 8 weeks old; weight = 30 g; Charles River, Canada). The mice were maintained at optimal temperature (24 °C) and relative humidity (50%) on a 12/12-light/dark cycle with free access to water and food. The mice were monitored clinically every day; body weights were recorded and tumor volumes were measured with a caliper using the formula 4/3 π (length/2) (width/2)^2 every other day. Once tumors reached 68 mm^3, the mice were randomly divided into 4 groups: 1 was treated with ZR2002 (N = 7), another was treated with JS84 (N = 7), another was treated with JS61 (N = 7) and the last was treated with a vehicle (N = 7). […]
All PET/CT experiments were performed using nanoScan PET/CT for small animals (Mediso Medical Imaging Systems, Budapest, Hungary). […] The mice were kept awake for 45 min before the scans and weighed, and glycemia was measured in blood drawn from the caudal artery. […] Temperature and heart rate were monitored throughout the procedure using the Mediso system. […] The CT volume-of-interest (VOI) was drawn manually on the CT and PET co-registered images. ^18F-FDG accumulation was quantified as the mean standardized uptake value (SUV) between 20 and 30 min post-injection in a 3D volume-of-interest (VOI), which was named the metabolic volume (MV), delineated semi-automatically with iso-contours at a 40% threshold of the maximal SUV [30] in the tumor on PET/CT fusion slices using the PMOD software package v3.6 (PMOD Technologies Ltd., Zürich, Switzerland). In addition, another tumor volume-based parameter, called total lesion glycolysis (TLG), was calculated according to the product between the MV and the mean SUV. […]

[2] = target: T1, EGFR phosphorylation of tyrosine (Tyr) 1068 (Homo sapiens, UniProt P00533); assay: P-EGFR in tumor tissue (immunohistochemistry, Western blot); type: in vivo; settings: tumors 3 h after last dose, 80 mg/kg, N = 4
T1 construct: Western blotting in tumor samples obtained from animals treated with ZR2002, JS61, JS84 or the vehicle; from tissue; host or cells: Saos-2 xenograft tumours grown subcutaneously in NSG mice
Protocol: (§1) In order to study the drug pharmacokinetics, 1 last dose (the 11th dose) was administered 3 h prior to sacrifice and after a break of 5 days from the previous drug administration.
(§2) At the end of the study, the mice were sacrificed, and the plasma and tumors were collected. The plasma was stored at −80 °C, and the tumor tissues were transversely cut into 2 parts: 1 was immediately frozen in liquid nitrogen and stored at −80 °C for Western blots and LC-MS analysis; the other was fixed in 4% paraformaldehyde and used for histology.
(§3) The tumors were fixed for 36 h in 4% paraformaldehyde, transferred to 70% EtOH and paraffin-embedded. Sections 4 µm thick were deparaffinized, rehydrated and incubated for 20 min at 37 °C with anti-P-EGFR (1–100, ab40815, Abcam, Cambridge, UK) or anti-P-H2AX (1–100, sc-517348, Santa Cruz Biotechnology, Dallas, TX, USA), followed by secondary Ab incubation with OmniMap anti-Rb HRP (760–4311, Roche, Basel, Switzerland) at room temperature for 16 min, followed by the detection kit ChromoMap Kit (760–4304, Roche, Basel, Switzerland), and the slides were then counterstained with hematoxylin, dehydrated, cleared and cover-slipped. The slides were digitally scanned using an Aperio scanner scope XT.
(§4) The tumor tissue samples were smashed with liquid nitrogen into a mortar, and the tumor powders were transferred to cold RIPA 1x buffer with an anti-protease and anti-phosphatase inhibitor cocktail (Roche, Basel, Switzerland) in ice for 1 h and sonicated. After centrifugation, the proteins were quantified and mixed in Laemmli buffer (Sigma-Aldrich, St. Louis, MO, USA), maintaining the same concentration.
(§5) Cell lysates or tissue lysates were loaded onto 4–20% SDS-PAGE gels (mini-protean TGx stain-free, Bio-Rad, Hercules, CA, USA) and transferred to PVDF membranes that were pre-wetted with methanol. […] The quantification of the immunoblots was performed on digitalized images using ImageLab Software 6.1 (Bio-Rad, Hercules, CA, USA). […]

U2-OS = assay: cells; type: cell-based; settings: Homo sapiens, U2OS, 120 h, read-out: IC50 growth inhibition
ɣ-H2AX phosphorylation = assay: P-H2AX in tumor tissue (immunohistochemistry, Western blot); type: in vivo, human; settings: tumors 3 h after last dose, 80 mg/kg, N = 4
Protocol: as §1, §2, §3, §4, §5

T1 sequence (P00533 25-1210): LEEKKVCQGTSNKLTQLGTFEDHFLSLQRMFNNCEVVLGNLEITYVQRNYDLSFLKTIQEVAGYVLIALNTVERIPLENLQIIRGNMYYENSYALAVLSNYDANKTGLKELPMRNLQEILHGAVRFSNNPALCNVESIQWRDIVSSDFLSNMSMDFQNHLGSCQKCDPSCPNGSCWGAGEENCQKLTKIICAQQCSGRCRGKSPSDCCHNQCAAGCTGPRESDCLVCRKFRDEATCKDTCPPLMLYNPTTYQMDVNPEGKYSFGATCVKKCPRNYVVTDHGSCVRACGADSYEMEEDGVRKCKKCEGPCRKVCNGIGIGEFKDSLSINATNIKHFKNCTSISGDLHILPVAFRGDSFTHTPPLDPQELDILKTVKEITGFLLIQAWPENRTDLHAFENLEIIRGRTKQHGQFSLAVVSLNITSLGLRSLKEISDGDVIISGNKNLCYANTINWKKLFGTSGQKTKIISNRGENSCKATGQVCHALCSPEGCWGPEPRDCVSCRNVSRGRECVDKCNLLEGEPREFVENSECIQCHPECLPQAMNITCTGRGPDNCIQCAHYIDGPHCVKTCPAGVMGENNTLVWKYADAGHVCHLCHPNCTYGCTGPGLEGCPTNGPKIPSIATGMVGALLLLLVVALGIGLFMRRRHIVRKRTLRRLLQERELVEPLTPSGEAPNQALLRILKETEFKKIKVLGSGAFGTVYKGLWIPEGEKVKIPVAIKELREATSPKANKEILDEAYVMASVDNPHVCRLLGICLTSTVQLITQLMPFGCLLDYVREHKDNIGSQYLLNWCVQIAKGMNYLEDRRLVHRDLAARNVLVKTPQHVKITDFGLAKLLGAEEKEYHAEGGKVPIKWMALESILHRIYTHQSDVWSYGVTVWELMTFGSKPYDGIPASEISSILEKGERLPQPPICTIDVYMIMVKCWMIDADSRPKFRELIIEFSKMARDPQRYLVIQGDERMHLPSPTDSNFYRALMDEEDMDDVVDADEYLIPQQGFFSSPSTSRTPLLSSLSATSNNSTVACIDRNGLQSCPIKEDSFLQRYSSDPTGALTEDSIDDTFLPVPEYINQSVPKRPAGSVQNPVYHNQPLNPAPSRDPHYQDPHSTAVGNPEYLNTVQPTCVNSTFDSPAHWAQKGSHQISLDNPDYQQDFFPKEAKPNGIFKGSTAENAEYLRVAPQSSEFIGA

Q: Which results are given for `ClCCN(CCCl)c1ccc2ncnc(Nc3cccc(Br)c3)c2c1` [JS61]?
A: IC50 (Saos-2): 1.59 ± 0.1 µM; IC50 (KHOS/NP): 6.83 ± 0.5 µM; tumor size / growth inhibition vs vehicle (caliper and CT scan) [1]: no significant growth inhibition; EGFR phosphorylation of Tyr 1068 in tumors vs vehicle [2]: detectable EGFR phosphorylation; IC50 (U2-OS): 1.39 ± 0.02 µM; ɣ-H2AX phosphorylation in tumors vs control (ɣ-H2AX phosphorylation): low levels of H2AX phosphorylation

Q: What does the source list for `CN(CCCl)c1ccc2ncnc(Nc3cccc(Br)c3)c2c1` [JS84]?
A: IC50 (Saos-2): 0.25 ± 0.04 µM; IC50 (KHOS/NP): 1.38 ± 0.3 µM; tumor size / growth inhibition vs vehicle (caliper and CT scan) [1]: no significant growth inhibition; also recorded: minor antitumor activity; EGFR phosphorylation of Tyr 1068 in tumors vs vehicle [2]: detectable EGFR phosphorylation; IC50 (U2-OS): 0.18 ± 0.03 µM; ɣ-H2AX phosphorylation in tumors vs control (ɣ-H2AX phosphorylation): low levels of H2AX phosphorylation

Q: Which “fold more potent than JS84” value (Saos-2) does the source give for `ClCCNc1ccc2ncnc(Nc3cccc(Br)c3)c2c1` [ZR2002] here?
A: 7 fold

Q: What about the IC50 (Saos-2) of the same molecule?
A: 0.08 ± 0.01 µM

Q: What about the IC50 (KHOS/NP) of the same molecule?
A: 0.19 ± 0.03 µM

Q: What about the “tumor size / growth inhibition vs vehicle (caliper and CT scan)” value [1] of the same molecule?
A: significantly reduced

Q: And the “EGFR phosphorylation of Tyr 1068 in tumors vs vehicle” value [2]?
A: reduced

Q: And the IC50 (U2-OS)?
A: 0.08 ± 0.01 µM

Q: And the “ɣ-H2AX phosphorylation in tumors vs control” value (ɣ-H2AX phosphorylation)?
A: enhanced in comparison with the control, even if it was not statistically significant
